In patent US5420143A, “Piperidine derivatives for treating allergy” (Kowa Co., Ltd., priority 1993, dated 1995):

How the values were obtained:
[1] = tested on: ileum isolated from guinea pigs, contraction induced by histamine; test: Inhibition of histamine-induced contraction of isolated guinea pig ileum (antihistamine activity); conditions: Average ± S.D.; histamine 1×10^-5 M; 30 minutes incubation with test compound; test compound concentration not given
Description: (§1) Antihistamine activity and antileukotriene activity:
(§2) The first three constant constractions induced by histamine (1×10^-5 M) or leukotriene D4 (1×10^-8 M) were used as the reference for the calculation of the inhibitory ratio. After repeated washings until contraction movement recurred, ileal strip was incubated with the test compound for 30 minutes. The contraction test was then conducted again using histamine or leukotriene D4. The inhibitory ratio (%) of the test compound on the ileum was calculated according to the following equation: [formula]

[2] = tested on: ileum isolated from guinea pigs, contraction induced by leukotriene D4; test: Inhibition of leukotriene D4 induced contraction of isolated guinea pig ileum (antileukotriene activity); conditions: Average ± S.D.; leukotriene D4 1×10^-8 M; 30 minutes incubation with test compound; test compound concentration not given
Description: as §1, §2

[3] = biological target: T1, Leukotriene D4 receptors (Cavia porcellus, UniProt Q2NNR5); test: Binding assay on Leukotriene D4 receptors (guinea-pig lung membrane protein, [^3 H]-leukotriene D4)
T1 construct: Preparation of guinea-pig lung membrane protein; from tissue; host or cells: guinea-pig lung membranes
T1 sequence (Q2NNR5 1-340): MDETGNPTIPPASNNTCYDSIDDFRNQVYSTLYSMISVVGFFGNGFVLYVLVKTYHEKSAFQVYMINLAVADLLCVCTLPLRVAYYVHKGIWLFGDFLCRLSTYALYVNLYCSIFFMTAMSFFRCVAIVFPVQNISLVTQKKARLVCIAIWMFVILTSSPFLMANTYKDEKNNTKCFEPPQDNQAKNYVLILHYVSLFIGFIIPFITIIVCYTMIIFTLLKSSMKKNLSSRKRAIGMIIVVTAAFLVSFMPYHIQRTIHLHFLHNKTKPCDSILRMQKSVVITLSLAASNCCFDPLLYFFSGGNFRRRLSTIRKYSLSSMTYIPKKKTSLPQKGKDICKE
Excerpt: Binding assay on Leukotriene D4 receptors:
a) Preparation of guinea-pig lung membrane protein:

| Structure (SMILES) | Inhibition vs histamine-induced contraction (%) [1] | Inhibition vs leukotriene D4 induced contraction (%) [2] | antileukotriene activity (nature of the activity) ([3]; binding assay on leukotriene D4 receptors) | Kd ([3]; read-out: binding affinity on leukotriene D4 receptors (Kd)) |
| --- | --- | --- | --- | --- |
| O=c1cc(-c2nnn[nH]2)oc2cc(OCCCN3CCC(=C(c4ccccc4)c4ccccc4)CC3)ccc12 [Compound (1), 7-[3-(4-Diphenylmethylenepiperidin-1-yl)propyloxy]-2-(5-tetrazolyl)-4-oxo-4H-benzopyran] | 52 ± 7% | 15 ± 1% | antagonistic | 2320 nM |
| CCCc1c(OCC(O)COc2ccc3c(=O)cc(C(=O)O)oc3c2CCC)ccc(C(C)=O)c1O (centres unmarked) [FPL-55712] | 0% | 11 ± 4% | – | – |
| CC(C)(C)c1ccc(C(O)CCCN2CCC(C(O)(c3ccccc3)c3ccccc3)CC2)cc1 (centres unmarked) [Terfenadine] | 5 ± 1% | 0% | – | – |
